# Measurements reported in paper PMC8592951, “9-Methyl-β-carboline inhibits monoamine oxidase activity and stimulates the expression of neurotrophic factors by astrocytes” (Journal of Neural Transmission, 2020).
# Columns and labels:
# MAO-A = biological target: T1, MAO-A (Homo sapiens, UniProt P21397); test: MAO-Glo luminescence enzyme activity assay; format: biochemical
# T1 construct: gene MAOA
# T1 sequence (P21397 1-527): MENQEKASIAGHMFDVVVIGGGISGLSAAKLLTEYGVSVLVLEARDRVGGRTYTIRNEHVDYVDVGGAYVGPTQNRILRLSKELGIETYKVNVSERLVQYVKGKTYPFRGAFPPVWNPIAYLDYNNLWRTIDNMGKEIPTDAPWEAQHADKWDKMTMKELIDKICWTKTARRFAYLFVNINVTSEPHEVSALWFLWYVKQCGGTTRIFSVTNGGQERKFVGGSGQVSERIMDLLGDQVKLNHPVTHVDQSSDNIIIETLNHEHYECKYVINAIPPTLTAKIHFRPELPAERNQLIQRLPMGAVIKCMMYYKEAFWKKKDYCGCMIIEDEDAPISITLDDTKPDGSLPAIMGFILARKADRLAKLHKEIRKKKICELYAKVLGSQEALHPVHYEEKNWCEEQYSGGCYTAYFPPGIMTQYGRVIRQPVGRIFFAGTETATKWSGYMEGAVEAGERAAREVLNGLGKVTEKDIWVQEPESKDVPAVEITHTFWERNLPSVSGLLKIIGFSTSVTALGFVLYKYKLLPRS
# MAO-B = biological target: T2, MAO-B (Homo sapiens, UniProt P27338); test: MAO-Glo luminescence enzyme activity assay with purchased human MAO-B; format: biochemical
# T2 construct: gene MAOB
# T2 sequence (P27338 2-520): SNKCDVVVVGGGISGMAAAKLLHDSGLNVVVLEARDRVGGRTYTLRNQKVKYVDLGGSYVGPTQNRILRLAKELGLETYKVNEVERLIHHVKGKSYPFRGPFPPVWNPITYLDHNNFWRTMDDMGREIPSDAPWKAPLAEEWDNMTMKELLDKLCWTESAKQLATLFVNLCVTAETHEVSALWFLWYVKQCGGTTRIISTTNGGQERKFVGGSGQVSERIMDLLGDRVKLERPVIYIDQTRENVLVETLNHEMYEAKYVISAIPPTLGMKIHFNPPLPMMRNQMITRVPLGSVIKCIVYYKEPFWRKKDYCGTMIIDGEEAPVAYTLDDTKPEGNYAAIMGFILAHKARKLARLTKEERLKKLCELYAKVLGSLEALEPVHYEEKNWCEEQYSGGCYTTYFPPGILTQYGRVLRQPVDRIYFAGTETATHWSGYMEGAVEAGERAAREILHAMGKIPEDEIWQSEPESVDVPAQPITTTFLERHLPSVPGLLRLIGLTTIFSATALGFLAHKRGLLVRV
compound,measurement,setting,value
Cn1c2ccccc2c2ccncc21 [9-methyl-β-carboline],IC50,MAO-A,1 µM
same,IC50,MAO-B,15.5 µM
